{
  "source": "PubChem BioAssay (NCI)",
  "assay_in_all_cases": "growth of human tumour cells (NCI), 384-well format",
  "key": {"SK-OV-3 ovarian": {"tested_on": "SK-OV-3 ovarian"}, "DU-145 prostate": {"tested_on": "DU-145 prostate"}, "A549 NSCLC": {"tested_on": "A549 NSCLC"}, "EKVX NSCLC": {"tested_on": "EKVX NSCLC"}, "SF-539 CNS": {"tested_on": "SF-539 CNS"}, "OVCAR-3 ovarian": {"tested_on": "OVCAR-3 ovarian"}, "SF-295 CNS": {"tested_on": "SF-295 CNS"}, "CAKI-1 renal": {"tested_on": "CAKI-1 renal"}, "BT-549 breast": {"tested_on": "BT-549 breast"}, "RPMI-8226 leukemia": {"tested_on": "RPMI-8226 leukemia"}, "SNB-19 CNS": {"tested_on": "SNB-19 CNS"}, "HOP-92 NSCLC": {"tested_on": "HOP-92 NSCLC"}, "OVCAR-8 ovarian": {"tested_on": "OVCAR-8 ovarian"}, "NCI-H460 NSCLC": {"tested_on": "NCI-H460 NSCLC"}, "LOX IMVI melanoma": {"tested_on": "LOX IMVI melanoma"}, "COLO 205 colon": {"tested_on": "COLO 205 colon"}, "M14 melanoma": {"tested_on": "M14 melanoma"}, "UACC-257 melanoma": {"tested_on": "UACC-257 melanoma"}, "HCT-15 colon": {"tested_on": "HCT-15 colon"}, "MCF7 breast": {"tested_on": "MCF7 breast"}, "NCI-H226 lung": {"tested_on": "NCI-H226 lung"}, "SR leukemia": {"tested_on": "SR leukemia"}, "IGROV1 ovarian": {"tested_on": "IGROV1 ovarian"}, "KM12 colon": {"tested_on": "KM12 colon"}, "NCI/ADR-RES ovarian": {"tested_on": "NCI/ADR-RES ovarian"}, "T-47D breast": {"tested_on": "T-47D breast"}, "UO-31 renal": {"tested_on": "UO-31 renal"}, "MOLT-4 leukemia": {"tested_on": "MOLT-4 leukemia"}},
  "note": "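GI50 is the concentration that inhibits growth by half. TGI is the concentration that stops growth completely.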",
  "data": [
    {"smiles": "COC1CCC(N2C(=O)CNc3ncc(-c4ccc(C(C)(C)O)nc4)nc32)CC1", "note": "(stereo unspecified)", "values": [
      {"measurement": "GI50", "setting": "SK-OV-3 ovarian", "result": 280, "unit": "nM"},
      {"measurement": "TGI", "setting": "SK-OV-3 ovarian", "result": 17100, "unit": "nM"},
      {"measurement": "GI50", "setting": "DU-145 prostate", "result": 660, "unit": "nM"},
      {"measurement": "TGI", "setting": "DU-145 prostate", "result": 20200, "unit": "nM"},
      {"measurement": "GI50", "setting": "A549 NSCLC", "result": 358, "unit": "nM"},
      {"measurement": "TGI", "setting": "A549 NSCLC", "result": "> 100000", "unit": "nM"},
      {"measurement": "GI50", "setting": "EKVX NSCLC", "result": 530, "unit": "nM"},
      {"measurement": "TGI", "setting": "EKVX NSCLC", "result": 31200, "unit": "nM"},
      {"measurement": "GI50", "setting": "SF-539 CNS", "result": 1270, "unit": "nM"},
      {"measurement": "TGI", "setting": "SF-539 CNS", "result": 22300, "unit": "nM"},
      {"measurement": "GI50", "setting": "OVCAR-3 ovarian", "result": 386, "unit": "nM"},
      {"measurement": "TGI", "setting": "OVCAR-3 ovarian", "result": 22800, "unit": "nM"},
      {"measurement": "GI50", "setting": "SF-295 CNS", "result": 184, "unit": "nM"},
      {"measurement": "TGI", "setting": "SF-295 CNS", "result": 1120, "unit": "nM"},
      {"measurement": "GI50", "setting": "CAKI-1 renal", "result": 215, "unit": "nM"},
      {"measurement": "TGI", "setting": "CAKI-1 renal", "result": 3620, "unit": "nM"},
      {"measurement": "GI50", "setting": "BT-549 breast", "result": 474, "unit": "nM"},
      {"measurement": "TGI", "setting": "BT-549 breast", "result": 7350, "unit": "nM"},
      {"measurement": "GI50", "setting": "RPMI-8226 leukemia", "result": 25, "unit": "nM"},
      {"measurement": "TGI", "setting": "RPMI-8226 leukemia", "result": 110, "unit": "nM"},
      {"measurement": "GI50", "setting": "SNB-19 CNS", "result": 5340, "unit": "nM"},
      {"measurement": "TGI", "setting": "SNB-19 CNS", "result": "> 100000", "unit": "nM"},
      {"measurement": "GI50", "setting": "HOP-92 NSCLC", "result": 454, "unit": "nM"},
      {"measurement": "TGI", "setting": "HOP-92 NSCLC", "result": "> 100000", "unit": "nM"},
      {"measurement": "GI50", "setting": "OVCAR-8 ovarian", "result": 693, "unit": "nM"},
      {"measurement": "TGI", "setting": "OVCAR-8 ovarian", "result": "> 100000", "unit": "nM"},
      {"measurement": "GI50", "setting": "NCI-H460 NSCLC", "result": 65.9, "unit": "nM"},
      {"measurement": "TGI", "setting": "NCI-H460 NSCLC", "result": 16300, "unit": "nM"},
      {"measurement": "GI50", "setting": "LOX IMVI melanoma", "result": 587, "unit": "nM"},
      {"measurement": "TGI", "setting": "LOX IMVI melanoma", "result": 12900, "unit": "nM"},
      {"measurement": "GI50", "setting": "COLO 205 colon", "result": 323, "unit": "nM"},
      {"measurement": "TGI", "setting": "COLO 205 colon", "result": "> 100000", "unit": "nM"},
      {"measurement": "GI50", "setting": "M14 melanoma", "result": 296, "unit": "nM"},
      {"measurement": "TGI", "setting": "M14 melanoma", "result": "> 100000", "unit": "nM"},
      {"measurement": "GI50", "setting": "UACC-257 melanoma", "result": 3010, "unit": "nM"},
      {"measurement": "TGI", "setting": "UACC-257 melanoma", "result": "> 100000", "unit": "nM"},
      {"measurement": "GI50", "setting": "HCT-15 colon", "result": 448, "unit": "nM"},
      {"measurement": "TGI", "setting": "HCT-15 colon", "result": 44700, "unit": "nM"},
      {"measurement": "GI50", "setting": "MCF7 breast", "result": 68.6, "unit": "nM"},
      {"measurement": "TGI", "setting": "MCF7 breast", "result": "> 100000", "unit": "nM"},
      {"measurement": "GI50", "setting": "NCI-H226 lung", "result": 326, "unit": "nM"},
      {"measurement": "TGI", "setting": "NCI-H226 lung", "result": 7120, "unit": "nM"},
      {"measurement": "GI50", "setting": "SR leukemia", "result": 16, "unit": "nM"},
      {"measurement": "TGI", "setting": "SR leukemia", "result": 53.3, "unit": "nM"},
      {"measurement": "GI50", "setting": "IGROV1 ovarian", "result": 137, "unit": "nM"},
      {"measurement": "TGI", "setting": "IGROV1 ovarian", "result": 12800, "unit": "nM"},
      {"measurement": "GI50", "setting": "KM12 colon", "result": 474, "unit": "nM"},
      {"measurement": "TGI", "setting": "KM12 colon", "result": 33900, "unit": "nM"},
      {"measurement": "GI50", "setting": "NCI/ADR-RES ovarian", "result": 2360, "unit": "nM"},
      {"measurement": "TGI", "setting": "NCI/ADR-RES ovarian", "result": 32300, "unit": "nM"},
      {"measurement": "GI50", "setting": "T-47D breast", "result": 74.3, "unit": "nM"},
      {"measurement": "TGI", "setting": "T-47D breast", "result": "> 100000", "unit": "nM"},
      {"measurement": "GI50", "setting": "UO-31 renal", "result": 358, "unit": "nM"},
      {"measurement": "TGI", "setting": "UO-31 renal", "result": "> 100000", "unit": "nM"},
      {"measurement": "GI50", "setting": "MOLT-4 leukemia", "result": 233, "unit": "nM"},
      {"measurement": "TGI", "setting": "MOLT-4 leukemia", "result": 2110, "unit": "nM"}
    ]}
  ]
}
